ChEMBL document CHEMBL1141723, “Specific targeting of metzincin family members with small-molecule inhibitors: progress toward a multifarious challenge” (Bioorg Med Chem, 2008)
Values belong to the compound of their own block, whether it stands above or below them. Activity calls are given as the source filed them. The rule behind the calls is not given here.

Legend:
[1] = biological target: T1, 72 kDa type IV collagenase (Homo sapiens, UniProt P08253)
Target sequence in this assay (P08253 whole entry): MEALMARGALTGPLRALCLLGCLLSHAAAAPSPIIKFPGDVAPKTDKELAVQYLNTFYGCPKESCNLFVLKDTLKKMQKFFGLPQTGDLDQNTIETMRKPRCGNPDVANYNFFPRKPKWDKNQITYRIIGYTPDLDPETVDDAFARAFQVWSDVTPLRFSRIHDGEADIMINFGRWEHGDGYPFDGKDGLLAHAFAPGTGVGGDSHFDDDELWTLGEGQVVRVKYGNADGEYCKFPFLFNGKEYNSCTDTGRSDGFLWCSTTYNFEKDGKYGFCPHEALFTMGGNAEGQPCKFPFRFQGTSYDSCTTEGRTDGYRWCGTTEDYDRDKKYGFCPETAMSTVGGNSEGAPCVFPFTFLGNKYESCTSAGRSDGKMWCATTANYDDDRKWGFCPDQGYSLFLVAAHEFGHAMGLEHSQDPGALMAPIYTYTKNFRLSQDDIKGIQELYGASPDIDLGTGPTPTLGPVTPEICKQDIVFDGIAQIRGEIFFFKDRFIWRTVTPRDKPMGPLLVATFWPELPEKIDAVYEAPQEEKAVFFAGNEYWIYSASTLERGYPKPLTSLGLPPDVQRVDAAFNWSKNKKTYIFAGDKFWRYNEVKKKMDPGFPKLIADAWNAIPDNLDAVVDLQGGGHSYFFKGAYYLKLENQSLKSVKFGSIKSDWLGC

Stromelysin-1 [2] = biological target: T2, Stromelysin-1 (Homo sapiens, UniProt P08254)
Target sequence in this assay (P08254 whole entry): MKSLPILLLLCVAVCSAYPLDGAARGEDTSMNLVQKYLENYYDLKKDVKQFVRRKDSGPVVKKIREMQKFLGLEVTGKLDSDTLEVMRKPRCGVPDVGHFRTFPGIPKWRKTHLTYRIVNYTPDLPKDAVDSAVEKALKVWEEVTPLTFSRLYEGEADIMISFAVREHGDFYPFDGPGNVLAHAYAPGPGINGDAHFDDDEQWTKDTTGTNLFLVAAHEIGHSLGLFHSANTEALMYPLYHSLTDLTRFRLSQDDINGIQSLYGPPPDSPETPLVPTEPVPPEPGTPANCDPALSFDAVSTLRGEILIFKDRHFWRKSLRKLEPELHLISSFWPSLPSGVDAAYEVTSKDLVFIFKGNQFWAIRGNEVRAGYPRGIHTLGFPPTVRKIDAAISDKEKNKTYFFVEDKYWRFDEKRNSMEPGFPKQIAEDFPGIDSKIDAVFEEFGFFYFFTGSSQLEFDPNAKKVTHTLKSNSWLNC

Interstitial collagenase = biological target: T3, Interstitial collagenase (Homo sapiens, UniProt P03956)
T3 sequence (P03956 whole entry): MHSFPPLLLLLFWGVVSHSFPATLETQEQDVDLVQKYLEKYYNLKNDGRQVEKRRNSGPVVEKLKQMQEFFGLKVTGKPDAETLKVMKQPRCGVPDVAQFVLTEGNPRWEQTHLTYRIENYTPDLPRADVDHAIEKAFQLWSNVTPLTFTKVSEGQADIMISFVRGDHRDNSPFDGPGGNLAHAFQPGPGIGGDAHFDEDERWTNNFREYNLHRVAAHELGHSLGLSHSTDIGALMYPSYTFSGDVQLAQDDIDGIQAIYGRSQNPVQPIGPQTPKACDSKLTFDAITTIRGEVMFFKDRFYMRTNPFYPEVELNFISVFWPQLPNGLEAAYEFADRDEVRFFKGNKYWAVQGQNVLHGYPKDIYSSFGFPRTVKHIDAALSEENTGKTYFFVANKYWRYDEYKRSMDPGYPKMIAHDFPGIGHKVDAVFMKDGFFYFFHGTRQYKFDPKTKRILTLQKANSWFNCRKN

[3] = biological target: T4, Matrix metalloproteinase-14 (Homo sapiens, UniProt P50281); experiment: Inhibition of MMP14
[4] = biological target: T5, Matrix metalloproteinase-9 (Homo sapiens, UniProt P14780); experiment: Inhibition of MMP9
T5 sequence (P14780 whole entry): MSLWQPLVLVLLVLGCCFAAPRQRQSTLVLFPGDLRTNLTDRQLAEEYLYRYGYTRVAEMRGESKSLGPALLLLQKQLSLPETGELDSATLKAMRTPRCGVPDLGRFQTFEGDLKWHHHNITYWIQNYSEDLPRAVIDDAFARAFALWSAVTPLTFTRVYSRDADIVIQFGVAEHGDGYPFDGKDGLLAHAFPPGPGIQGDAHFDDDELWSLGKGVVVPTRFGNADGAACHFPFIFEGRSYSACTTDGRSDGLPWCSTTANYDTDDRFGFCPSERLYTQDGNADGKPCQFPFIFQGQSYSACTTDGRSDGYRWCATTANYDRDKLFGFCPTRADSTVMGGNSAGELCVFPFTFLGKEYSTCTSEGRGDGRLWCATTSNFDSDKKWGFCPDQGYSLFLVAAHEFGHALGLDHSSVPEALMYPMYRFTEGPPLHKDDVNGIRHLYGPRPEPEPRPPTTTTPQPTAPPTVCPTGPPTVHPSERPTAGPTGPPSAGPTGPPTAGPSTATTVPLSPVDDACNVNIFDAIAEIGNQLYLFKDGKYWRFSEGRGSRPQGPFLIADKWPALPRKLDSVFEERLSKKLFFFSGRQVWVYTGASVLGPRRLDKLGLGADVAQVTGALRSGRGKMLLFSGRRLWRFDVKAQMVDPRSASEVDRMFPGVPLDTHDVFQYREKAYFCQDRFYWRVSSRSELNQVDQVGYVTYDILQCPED

[5] = Selectivity for TACE over ADAM10
[6] = Selectivity for TACE over MMP7
[7] = Selectivity for TACE over BMP1
[8] = Selectivity for TACE over MMP14
[9] = Selectivity for TACE over MMP1
[10] = Selectivity for TACE over MMP2
[11] = Selectivity for TACE over MMP3
[12] = biological target: Disintegrin and metalloproteinase domain-containing protein 17 (Homo sapiens, UniProt P78536); experiment: Inhibition of TACE
Sequence of Disintegrin and metalloproteinase domain-containing protein 17 (Homo sapiens, UniProt P78536) (P78536 whole entry, the tested form may be a part): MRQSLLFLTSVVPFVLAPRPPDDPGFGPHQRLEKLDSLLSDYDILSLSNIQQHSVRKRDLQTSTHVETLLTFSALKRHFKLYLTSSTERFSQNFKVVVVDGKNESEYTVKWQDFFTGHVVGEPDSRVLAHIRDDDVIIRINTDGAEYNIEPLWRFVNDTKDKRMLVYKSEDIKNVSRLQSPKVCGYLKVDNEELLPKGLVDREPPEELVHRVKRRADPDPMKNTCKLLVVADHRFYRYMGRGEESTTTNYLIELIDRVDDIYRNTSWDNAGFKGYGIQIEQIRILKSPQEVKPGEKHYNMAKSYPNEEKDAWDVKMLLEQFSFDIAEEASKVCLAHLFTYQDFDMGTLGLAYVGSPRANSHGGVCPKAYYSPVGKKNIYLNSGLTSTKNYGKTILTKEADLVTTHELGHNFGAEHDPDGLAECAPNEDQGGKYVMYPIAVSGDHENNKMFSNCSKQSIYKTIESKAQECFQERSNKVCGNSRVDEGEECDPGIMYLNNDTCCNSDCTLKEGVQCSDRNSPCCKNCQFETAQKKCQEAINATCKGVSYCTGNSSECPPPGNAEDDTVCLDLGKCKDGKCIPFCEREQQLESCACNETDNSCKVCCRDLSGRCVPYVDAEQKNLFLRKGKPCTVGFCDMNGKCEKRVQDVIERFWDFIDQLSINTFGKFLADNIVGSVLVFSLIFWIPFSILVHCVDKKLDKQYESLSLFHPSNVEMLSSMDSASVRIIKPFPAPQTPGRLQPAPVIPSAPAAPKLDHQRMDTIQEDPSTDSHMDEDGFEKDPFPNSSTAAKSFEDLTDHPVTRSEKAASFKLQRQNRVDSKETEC

Collagenase 3 [13] = biological target: T6, Collagenase 3 (Homo sapiens, UniProt P45452); experiment: Inhibition of MMP13
[14] = biological target: T7, Matrix metalloproteinase-17 (Homo sapiens) (UniProt Q9ULZ9); experiment: Inhibition of MMP17 up to 100 uM
T7 sequence (whole entry): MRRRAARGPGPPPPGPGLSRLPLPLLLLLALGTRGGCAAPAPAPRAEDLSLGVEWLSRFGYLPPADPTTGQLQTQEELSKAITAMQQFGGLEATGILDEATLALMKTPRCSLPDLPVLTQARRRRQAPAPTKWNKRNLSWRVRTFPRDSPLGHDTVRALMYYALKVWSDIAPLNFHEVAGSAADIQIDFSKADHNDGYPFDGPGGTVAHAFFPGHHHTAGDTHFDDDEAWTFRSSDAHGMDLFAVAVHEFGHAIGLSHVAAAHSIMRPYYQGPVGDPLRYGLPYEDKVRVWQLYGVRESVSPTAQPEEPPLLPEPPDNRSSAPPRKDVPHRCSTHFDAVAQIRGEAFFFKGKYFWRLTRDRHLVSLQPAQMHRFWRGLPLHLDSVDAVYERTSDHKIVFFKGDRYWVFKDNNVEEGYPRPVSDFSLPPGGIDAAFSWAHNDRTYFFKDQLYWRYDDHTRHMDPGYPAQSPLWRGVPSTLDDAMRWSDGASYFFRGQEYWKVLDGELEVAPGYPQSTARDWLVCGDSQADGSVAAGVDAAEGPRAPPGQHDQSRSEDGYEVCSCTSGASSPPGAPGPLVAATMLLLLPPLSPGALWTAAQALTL

Stromelysin-1 [15] = biological target: T2, Stromelysin-1; experiment: Inhibition of MMP3 up to 100 uM
Target sequence in this assay (P08254 100-477 limits assumed): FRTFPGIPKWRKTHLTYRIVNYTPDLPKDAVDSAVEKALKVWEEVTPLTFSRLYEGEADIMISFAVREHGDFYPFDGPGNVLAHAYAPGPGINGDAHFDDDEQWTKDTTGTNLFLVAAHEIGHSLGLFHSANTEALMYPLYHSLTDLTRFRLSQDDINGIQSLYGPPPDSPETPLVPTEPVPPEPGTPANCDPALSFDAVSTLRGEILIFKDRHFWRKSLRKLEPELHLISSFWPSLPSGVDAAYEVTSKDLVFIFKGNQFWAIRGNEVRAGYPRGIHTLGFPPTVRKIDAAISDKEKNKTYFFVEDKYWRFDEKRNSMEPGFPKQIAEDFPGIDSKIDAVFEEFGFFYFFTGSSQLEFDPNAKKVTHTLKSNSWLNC

[16] = biological target: T4, Matrix metalloproteinase-14; experiment: Inhibition of MMP14 up to 100 uM
[17] = biological target: T8, Interstitial collagenase (Homo sapiens) (UniProt P03956); experiment: Inhibition of MMP1 at 100 uM
T8 sequence (whole entry): T3 sequence (P03956 whole entry)

[18] = biological target: T1, 72 kDa type IV collagenase; experiment: Inhibition of MMP2 up to 100 uM
Target sequence in this assay (P08253 110-660 limits assumed): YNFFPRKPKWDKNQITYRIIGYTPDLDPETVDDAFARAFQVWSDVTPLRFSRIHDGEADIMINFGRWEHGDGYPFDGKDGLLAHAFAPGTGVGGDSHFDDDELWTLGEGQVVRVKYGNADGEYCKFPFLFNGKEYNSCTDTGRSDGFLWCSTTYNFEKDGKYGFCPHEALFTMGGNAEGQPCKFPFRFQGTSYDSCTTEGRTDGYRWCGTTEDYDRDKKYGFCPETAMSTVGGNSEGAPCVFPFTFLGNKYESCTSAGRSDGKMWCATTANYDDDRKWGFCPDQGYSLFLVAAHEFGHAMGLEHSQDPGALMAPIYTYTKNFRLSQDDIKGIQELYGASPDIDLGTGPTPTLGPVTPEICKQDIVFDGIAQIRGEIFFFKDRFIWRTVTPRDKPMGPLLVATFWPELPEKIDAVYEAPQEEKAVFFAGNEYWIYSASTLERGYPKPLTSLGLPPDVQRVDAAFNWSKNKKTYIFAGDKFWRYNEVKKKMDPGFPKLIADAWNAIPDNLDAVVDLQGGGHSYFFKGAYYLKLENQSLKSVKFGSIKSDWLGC

Neutrophil collagenase [19] = biological target: T9, Neutrophil collagenase (Homo sapiens, UniProt P22894); experiment: Inhibition of MMP8 up to 100 uM
Target sequence in this assay (P22894 101-467 limits assumed): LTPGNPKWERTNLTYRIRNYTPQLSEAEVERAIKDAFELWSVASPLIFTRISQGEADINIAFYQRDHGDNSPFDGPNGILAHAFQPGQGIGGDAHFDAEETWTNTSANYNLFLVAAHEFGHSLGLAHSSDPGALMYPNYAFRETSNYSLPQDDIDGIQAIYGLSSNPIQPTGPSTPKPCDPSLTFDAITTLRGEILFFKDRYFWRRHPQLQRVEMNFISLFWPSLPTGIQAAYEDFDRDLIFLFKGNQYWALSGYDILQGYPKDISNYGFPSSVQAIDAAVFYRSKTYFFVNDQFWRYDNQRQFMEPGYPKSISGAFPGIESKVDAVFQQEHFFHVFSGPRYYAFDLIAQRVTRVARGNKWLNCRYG

[20] = biological target: T10, Matrilysin (Homo sapiens) (UniProt P09237); experiment: Inhibition of MMP7 up to 100 uM
T10 sequence (whole entry): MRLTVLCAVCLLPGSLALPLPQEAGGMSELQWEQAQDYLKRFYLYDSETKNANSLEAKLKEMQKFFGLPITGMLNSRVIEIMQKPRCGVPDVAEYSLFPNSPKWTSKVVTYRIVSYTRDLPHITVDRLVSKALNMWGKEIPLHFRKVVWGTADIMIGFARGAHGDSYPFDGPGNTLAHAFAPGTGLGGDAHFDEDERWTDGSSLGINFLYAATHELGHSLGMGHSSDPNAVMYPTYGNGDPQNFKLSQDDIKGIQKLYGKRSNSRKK

[21] = biological target: Macrophage metalloelastase (Homo sapiens, UniProt P39900); experiment: Inhibition of MMP12 up to 100 uM
Sequence of Macrophage metalloelastase (P39900 106-470 limits assumed): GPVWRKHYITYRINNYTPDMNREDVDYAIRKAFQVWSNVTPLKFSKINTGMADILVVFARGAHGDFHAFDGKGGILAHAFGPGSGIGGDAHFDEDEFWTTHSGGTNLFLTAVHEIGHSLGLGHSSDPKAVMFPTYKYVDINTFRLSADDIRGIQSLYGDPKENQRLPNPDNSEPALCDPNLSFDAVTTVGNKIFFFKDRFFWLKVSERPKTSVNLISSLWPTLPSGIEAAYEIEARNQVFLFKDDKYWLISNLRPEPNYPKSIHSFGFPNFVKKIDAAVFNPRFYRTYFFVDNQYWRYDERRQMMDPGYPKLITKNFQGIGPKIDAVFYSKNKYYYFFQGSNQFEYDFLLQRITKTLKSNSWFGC

[22] = biological target: T5, Matrix metalloproteinase-9; experiment: Inhibition of MMP9 up to 100 uM
Collagenase 3 [23] = biological target: T6, Collagenase 3; experiment: Inhibition of MMP13 at 10 uM
[24] = biological target: T8, Interstitial collagenase (Homo sapiens); experiment: Inhibition of MMP1 at 10 uM
[25] = biological target: T5, Matrix metalloproteinase-9; experiment: Inhibition of MMP9 at 10 uM
[26] = biological target: Disintegrin and metalloproteinase domain-containing protein 17 (Sus scrofa, UniProt O77636); experiment: Inhibition of pig TACE
Matrilysin = biological target: T11, Matrilysin (Homo sapiens, UniProt P09237)
T11 sequence (P09237 whole entry): T10 sequence (whole entry)

[27] = biological target: T12, Disintegrin and metalloproteinase domain-containing protein 10 (Homo sapiens, UniProt O14672); experiment: Inhibition of ADAM10
T12 sequence (O14672 whole entry): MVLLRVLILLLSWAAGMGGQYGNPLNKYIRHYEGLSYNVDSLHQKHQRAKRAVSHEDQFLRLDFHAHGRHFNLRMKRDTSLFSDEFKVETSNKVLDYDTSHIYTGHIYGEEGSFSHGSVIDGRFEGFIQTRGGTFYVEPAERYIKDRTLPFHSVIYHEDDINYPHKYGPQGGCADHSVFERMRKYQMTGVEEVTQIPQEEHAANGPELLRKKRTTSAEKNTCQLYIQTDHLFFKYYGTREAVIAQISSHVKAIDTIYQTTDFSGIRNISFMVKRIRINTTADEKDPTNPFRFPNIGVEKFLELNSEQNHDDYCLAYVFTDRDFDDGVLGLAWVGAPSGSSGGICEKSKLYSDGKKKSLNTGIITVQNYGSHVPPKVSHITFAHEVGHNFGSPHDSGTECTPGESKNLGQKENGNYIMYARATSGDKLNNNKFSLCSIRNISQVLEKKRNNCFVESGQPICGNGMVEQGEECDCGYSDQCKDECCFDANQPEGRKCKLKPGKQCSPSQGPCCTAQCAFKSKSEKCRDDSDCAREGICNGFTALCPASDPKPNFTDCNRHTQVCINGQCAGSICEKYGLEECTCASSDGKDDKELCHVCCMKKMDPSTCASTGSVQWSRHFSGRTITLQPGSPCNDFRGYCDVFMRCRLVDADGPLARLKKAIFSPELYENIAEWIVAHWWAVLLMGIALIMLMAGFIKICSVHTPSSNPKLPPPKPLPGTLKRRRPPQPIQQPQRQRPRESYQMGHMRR

[28] = Selectivity for pig TACE over MMP2
[29] = Selectivity for pig TACE over MMP9
[30] = Selectivity for pig TACE over MMP3
[31] = Selectivity for pig TACE over MMP8
[32] = Selectivity for pig TACE over MMP1
[33] = Selectivity for pig TACE over MMP7
Neutrophil collagenase [34] = biological target: T9, Neutrophil collagenase; experiment: Inhibition of MMP8
Target sequence in this assay (P22894 whole entry): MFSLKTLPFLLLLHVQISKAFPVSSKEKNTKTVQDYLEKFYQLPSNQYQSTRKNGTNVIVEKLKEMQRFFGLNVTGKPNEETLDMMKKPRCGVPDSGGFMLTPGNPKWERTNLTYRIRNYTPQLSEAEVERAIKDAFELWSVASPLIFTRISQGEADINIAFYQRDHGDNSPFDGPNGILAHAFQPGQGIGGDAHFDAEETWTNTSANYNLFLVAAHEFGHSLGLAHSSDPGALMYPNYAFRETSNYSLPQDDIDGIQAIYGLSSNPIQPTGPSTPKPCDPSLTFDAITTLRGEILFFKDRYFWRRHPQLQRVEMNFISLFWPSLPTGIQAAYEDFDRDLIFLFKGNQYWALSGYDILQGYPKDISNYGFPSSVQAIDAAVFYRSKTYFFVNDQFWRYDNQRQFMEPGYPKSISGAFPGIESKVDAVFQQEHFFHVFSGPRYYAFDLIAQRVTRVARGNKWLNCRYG

[35] = biological target: A disintegrin and metalloproteinase with thrombospondin motifs 5 (Homo sapiens, UniProt Q9UNA0); experiment: Inhibition of ADAMTS5

IC50 [1]: 750 nM | IC50 (Stromelysin-1 [2]): 2.1 nM | IC50 (Interstitial collagenase): 5900 nM | IC50 [3]: 930 nM | IC50 [4]: 560 nM
Compound: COC[C@@H](NC(=O)[C@@H](NC(=O)[C@H](CCCc1ccc(-c2ccccc2)c(C)c1)CC(=O)NO)C(C)(C)C)c1ccccc1

fold change (FC) [5]: 4 | fold change (FC) [6]: > 8300 | fold change (FC) [7]: 1400 | fold change (FC) [8]: 770 | fold change (FC) [9]: > 8300 | fold change (FC) [10]: 3400 | fold change (FC) [11]: 1300
Compound: COC(=O)[C@]1(c2cccc(OCc3cc(C)nc4ccccc34)c2)C[C@H]1C(=O)NO

IC50 [12]: 2.2 nM | IC50 [1]: 664 nM | IC50 (Interstitial collagenase): 37300 nM | IC50 (Collagenase 3 [13]): 2280 nM | IC50 [3]: 24000 nM | IC50 [4]: 5500 nM
Compound: CC#CCOc1ccc(S(=O)(=O)CC2(C(=O)NO)CCN(c3c(C)noc3C)CC2)cc1

Activity [14]: inactive | Activity (Stromelysin-1 [15]): inactive | Activity [16]: inactive | Activity [17]: inactive | Activity [18]: inactive | Activity (Neutrophil collagenase [19]): inactive | Activity [20]: inactive | Activity [21]: inactive | Activity [22]: inactive
Compound: O=C(OCc1ccccc1)c1cn2c(=O)n(Cc3ccccc3)c(=O)cc2s1

inhibition (Collagenase 3 [23]): 56% | inhibition [24]: 52% | inhibition [25]: 52%
Compound: CC#CCOc1ccc(S(=O)(=O)C2(C(=O)NO)CCN(c3ccc(Cl)cc3)CC2)cc1

Compound: Cc1cc(COc2ccc(C(=O)Nc3ccccc3C(=O)c3c[nH]c(=O)[nH]3)cc2)c2ccccc2n1
IC50 [26]: 9 nM | Ki (Matrilysin): > 636 nM

IC50 [27]: 26 nM | IC50 [1]: > 5000 nM | IC50 (Stromelysin-1 [2]): > 5000 nM | IC50 (Interstitial collagenase): > 5000 nM | IC50 [4]: > 5000 nM
Compound: Cc1cc(C#N)ccc1N1CCN(S(=O)(=O)CC2(C(=O)NO)CCN(C(=O)O[C@@H]3CCOC3)CC2)CC1

fold change (FC) [28]: > 30000 | fold change (FC) [29]: > 14000 | fold change (FC) [30]: 427 | fold change (FC) [31]: 5500 | fold change (FC) [32]: > 30000 | fold change (FC) [33]: 200
Compound: Cc1cc(COc2ccc(C(=O)N[C@@H]3CCOC[C@@H]3C(=O)NO)cc2)c2ccccc2n1

IC50 [1]: > 50000 nM | IC50 (Interstitial collagenase): > 50000 nM
Compound: Cc1cc(=O)c(O)c(C(=O)NCc2ccc(-c3ccc(-c4ccccc4)cc3)cc2)o1

IC50 (Interstitial collagenase): > 100000 nM | IC50 (Neutrophil collagenase [34]): > 100000 nM | IC50 [3]: > 100000 nM
Compound: Cc1cc(COc2ccc(S(=O)(=O)CC(C=C3CCN(CC(C)C)CC3)N(O)C=O)cc2)c2ccccc2n1 (centres undefined)

Compound: O=S(=O)(CC1CS1)c1ccc(Oc2ccccc2)cc1 (centres undefined)
Ki [12]: 3700 nM

Activity [14]: inactive | Activity (Stromelysin-1 [15]): inactive | Activity [16]: inactive | Activity [17]: inactive | Activity [18]: inactive | Activity (Neutrophil collagenase [19]): inactive | Activity [20]: inactive | Activity [21]: inactive | Activity [22]: inactive
Compound: Cn1c(=O)n(Cc2ccc(C(=O)O)cc2)c(=O)c2cc(C#CCc3ccccc3)ccc21

Ki [35]: 1900 nM
Compound: O=C(N[C@@H]1CCOC[C@@H]1C(=O)NO)c1ccc(Cn2c(C(F)(F)F)nc3ccccc32)cc1
